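Results reflect a 48-hour exposure of cells in 96-well plates to compound at five concentrations. GI50 is the concentration that inhibits growth by half.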 Active and inactive are the calls of the source. No stated cut-off is given here; in the data, active = GI50 up to about 1.1 µM and inactive = higher. Where a SMILES comes first, the peptide text is derived from it. The star is where a group is joined. Boc = CC(C)(C)OC(=O)*
Columns and labels:
Assay in all cases: DTP human tumour cell line panel, 48 h
KM12 = system: KM12
A549 = system: A549
SNB-75 = system: SNB-75
HT-29 = system: HT-29
SK-MEL-2 = system: SK-MEL-2
TK-10 = system: TK-10
OVCAR-8 = system: OVCAR-8
RPMI-8226 = system: RPMI-8226
NCI-H23 = system: NCI-H23
SK-MEL-28 = system: SK-MEL-28
RXF 393 = system: RXF 393
UACC-62 = system: UACC-62
SK-MEL-5 = system: SK-MEL-5
EKVX = system: EKVX
786-0 = system: 786-0
NCI-H226 = system: NCI-H226
HCC 2998 = system: HCC 2998
ACHN = system: ACHN
HCT-15 = system: HCT-15
A498 = system: A498

SMILES | GI50 (KM12) | GI50 (A549) | GI50 (SNB-75) | GI50 (HT-29) | GI50 (SK-MEL-2) | GI50 (TK-10) | GI50 (OVCAR-8) | GI50 (RPMI-8226) | GI50 (NCI-H23) | GI50 (SK-MEL-28) | GI50 (RXF 393) | GI50 (UACC-62) | GI50 (SK-MEL-5) | GI50 (EKVX) | GI50 (786-0) | GI50 (NCI-H226) | GI50 (HCC 2998) | GI50 (ACHN) | GI50 (HCT-15) | GI50 (A498)
O=C(NN1C(=O)C(Cl)C1c1ccccc1O)c1ccccc1O (stereo not given) | 7.31 µM (inactive) | 17.8 µM (inactive) | 49.9 µM (inactive) | 6.61 µM (inactive) | 19.8 µM (inactive) | 47.5 µM (inactive) | 26.4 µM (inactive) | 12.5 µM (inactive) | 42.5 µM (inactive) | 22.3 µM (inactive) | 63.5 µM (inactive) | 27.9 µM (inactive) | 29.4 µM (inactive) | 29.4 µM (inactive) | – | – | – | – | – | –
C=C1C(C)C2C(Cc3ccccc3)NC(=O)C23C(OC(C)=O)C=CC(C)(O)C(=O)C(C)C/C=C/C3C1O (stereo not given) | 90.8 µM (inactive) | 0.764 µM (active) | 0.0333 µM (active) | – | 6.22 µM (inactive) | 0.505 µM (active) | 79.8 µM (inactive) | 5.98 µM (inactive) | 12.9 µM (inactive) | 2.47 µM (inactive) | 0.0865 µM (active) | 3.36 µM (inactive) | 0.76 µM (active) | 1.8 µM (inactive) | 0.311 µM (active) | 3.85 µM (inactive) | 21.7 µM (inactive) | 0.889 µM (active) | – | –
Cc1cnc(Cl)nc1C(C#N)c1nc2ccccc2s1 (stereo not given) | 33.8 µM (inactive) | 29 µM (inactive) | 18.8 µM (inactive) | 29.6 µM (inactive) | – | 24.8 µM (inactive) | 25.7 µM (inactive) | 12.6 µM (inactive) | 7 µM (inactive) | 69 µM (inactive) | 17.2 µM (inactive) | – | 5.57 µM (inactive) | 32.8 µM (inactive) | 15.7 µM (inactive) | 14.7 µM (inactive) | – | 18.7 µM (inactive) | 16.6 µM | 25.2 µM (inactive)
O=[N+]([O-])c1ccc(/C=N/Nc2nc3ccccc3[nH]2)o1 | 10.6 µM (inactive) | 12.2 µM (inactive) | 17.7 µM (inactive) | 19.5 µM (inactive) | – | 19.2 µM (inactive) | 16.7 µM (inactive) | 2.85 µM (inactive) | 16.2 µM (inactive) | 8.91 µM (inactive) | 14.6 µM (inactive) | – | 4.14 µM (inactive) | 22.8 µM (inactive) | 24.9 µM (inactive) | 22.2 µM (inactive) | – | – | 11.8 µM | –
O=[N+]([O-])c1ccc(Cl)cc1N/N=C/c1ccnc2ccccc12 | > 100 µM (inactive) | > 100 µM (inactive) | 31.1 µM (inactive) | > 100 µM (inactive) | – | > 100 µM (inactive) | 46.5 µM (inactive) | > 100 µM (inactive) | > 100 µM (inactive) | > 100 µM (inactive) | 36.9 µM (inactive) | > 100 µM (inactive) | > 100 µM (inactive) | 22.8 µM (inactive) | > 100 µM (inactive) | > 100 µM (inactive) | > 100 µM (inactive) | > 100 µM (inactive) | > 100 µM | –
COc1cccc(NC(=O)CSc2nnc(-c3ccc(NC(C)=O)cc3)o2)c1 | 49.4 µM (inactive) | > 100 µM (inactive) | 30.5 µM (inactive) | 39.6 µM (inactive) | > 100 µM (inactive) | > 100 µM (inactive) | > 100 µM (inactive) | > 100 µM (inactive) | > 100 µM (inactive) | > 100 µM (inactive) | > 100 µM (inactive) | > 100 µM (inactive) | > 100 µM (inactive) | – | > 100 µM (inactive) | > 100 µM (inactive) | – | > 100 µM (inactive) | > 100 µM | –
CCOCNC(=O)N(COCC)COCC | > 100 µM (inactive) | > 100 µM (inactive) | > 100 µM (inactive) | > 100 µM (inactive) | > 100 µM (inactive) | – | > 100 µM (inactive) | > 100 µM (inactive) | – | > 100 µM (inactive) | – | > 100 µM (inactive) | – | > 100 µM (inactive) | – | > 100 µM (inactive) | > 100 µM (inactive) | > 100 µM (inactive) | > 100 µM | > 100 µM (inactive)
COc1ccc2cc(C(=O)O)ccc2c1OC | > 100 µM (inactive) | > 100 µM (inactive) | 43 µM (inactive) | > 100 µM (inactive) | > 100 µM (inactive) | – | > 100 µM (inactive) | – | > 100 µM (inactive) | – | – | > 100 µM (inactive) | > 100 µM (inactive) | – | > 100 µM (inactive) | > 100 µM (inactive) | > 100 µM (inactive) | > 100 µM (inactive) | > 100 µM | > 100 µM (inactive)
CCCN(CCC)c1cc2c(cc1F)c(=O)c(C(=O)O)cn2-c1ccc(N2CCN(C)CC2)cn1 | 15.1 µM (inactive) | 16.1 µM (inactive) | 14.7 µM (inactive) | 14.7 µM (inactive) | – | 10.4 µM (inactive) | 14.3 µM (inactive) | 17.7 µM (inactive) | 16.7 µM (inactive) | 19.6 µM (inactive) | 18.7 µM (inactive) | 18.5 µM (inactive) | – | 16.7 µM (inactive) | 15.8 µM (inactive) | 16.7 µM (inactive) | – | – | 22.9 µM | 19.8 µM (inactive)
O=C(Cc1nc2ccc(C(=O)c3ccccc3)cc2nc1O)C(=O)Nc1nc2ccccc2[nH]1 | 24.6 µM (inactive) | 50.9 µM (inactive) | 31.7 µM (inactive) | 52.7 µM (inactive) | – | 49.3 µM (inactive) | 55.1 µM (inactive) | – | 44.6 µM (inactive) | 98.6 µM (inactive) | – | 38.7 µM (inactive) | 31 µM (inactive) | > 100 µM (inactive) | > 100 µM (inactive) | – | > 100 µM (inactive) | 86.7 µM (inactive) | 75 µM | –
CC1C2CC(CC2O)C1(C)C (stereo not given) | > 100 µM (inactive) | > 100 µM (inactive) | > 100 µM (inactive) | > 100 µM (inactive) | – | > 100 µM (inactive) | > 100 µM (inactive) | – | > 100 µM (inactive) | > 100 µM (inactive) | > 100 µM (inactive) | > 100 µM (inactive) | > 100 µM (inactive) | – | > 100 µM (inactive) | > 100 µM (inactive) | – | > 100 µM (inactive) | – | > 100 µM (inactive)
NC(=O)CCC(NCc1c2ccccc2[n+]([O-])c2ccccc12)C(=O)O (stereo not given) | 65.9 µM (inactive) | > 100 µM (inactive) | 49.7 µM (inactive) | > 100 µM (inactive) | 95.9 µM (inactive) | > 100 µM (inactive) | > 100 µM (inactive) | 36.1 µM (inactive) | 63 µM (inactive) | > 100 µM (inactive) | – | 90.8 µM (inactive) | 68.7 µM (inactive) | > 100 µM (inactive) | 70.8 µM (inactive) | 60.1 µM (inactive) | > 100 µM (inactive) | 78 µM (inactive) | 34.5 µM | > 100 µM (inactive)
CN1CCC(C(O)(c2ccccc2)c2ccc(Br)cc2)CC1 (stereo not given) | 18.6 µM (inactive) | 26.4 µM (inactive) | 16.6 µM (inactive) | 20 µM (inactive) | 16.2 µM (inactive) | 25.9 µM (inactive) | 50.2 µM (inactive) | 17.3 µM (inactive) | 46.9 µM (inactive) | 16.7 µM (inactive) | 18.3 µM (inactive) | 15.7 µM (inactive) | 14.8 µM (inactive) | 28.8 µM (inactive) | 14.4 µM (inactive) | 21.8 µM (inactive) | 12.6 µM (inactive) | 31.2 µM (inactive) | 35.6 µM | –
CCOC(=O)C(Cc1ccc(N=NN(C)C)cc1)NC(=O)CC1c2ccccc2-c2ccccc21 (stereo not given) | > 100 µM (inactive) | 81.7 µM (inactive) | > 100 µM (inactive) | > 100 µM (inactive) | > 100 µM (inactive) | > 100 µM (inactive) | > 100 µM (inactive) | 41.6 µM (inactive) | > 100 µM (inactive) | > 100 µM (inactive) | – | 42.9 µM (inactive) | 57 µM (inactive) | > 100 µM (inactive) | 82.4 µM (inactive) | > 100 µM (inactive) | > 100 µM (inactive) | 35.6 µM (inactive) | > 100 µM | > 100 µM (inactive)
c1ccc(-c2nnc(-c3nsc4ccccc34)o2)cc1 | > 100 µM (inactive) | > 100 µM (inactive) | 2.56 µM (inactive) | > 100 µM (inactive) | > 100 µM (inactive) | > 100 µM (inactive) | > 100 µM (inactive) | > 100 µM (inactive) | > 100 µM (inactive) | > 100 µM (inactive) | > 100 µM (inactive) | > 100 µM (inactive) | > 100 µM (inactive) | 41.4 µM (inactive) | – | – | > 100 µM (inactive) | – | > 100 µM | –
NC(C/C=C/P(=O)(O)O)C(=O)O (stereo not given) | > 100 µM (inactive) | > 100 µM (inactive) | 14.1 µM (inactive) | > 100 µM (inactive) | > 100 µM (inactive) | > 100 µM (inactive) | > 100 µM (inactive) | – | > 100 µM (inactive) | > 100 µM (inactive) | > 100 µM (inactive) | > 100 µM (inactive) | > 100 µM (inactive) | > 100 µM (inactive) | – | – | > 100 µM (inactive) | > 100 µM (inactive) | > 100 µM | –
CC(C)(C)OC(=O)NC(Cc1ccccc1)C(=O)N1CCCC1C(N)=O (stereo not drawn) (Boc-Phe-Pro-NH2; configuration not given here) | – | > 100 µM (inactive) | – | > 100 µM (inactive) | – | > 100 µM (inactive) | > 100 µM (inactive) | > 100 µM (inactive) | – | > 100 µM (inactive) | – | > 100 µM (inactive) | > 100 µM (inactive) | > 100 µM (inactive) | – | – | > 100 µM (inactive) | > 100 µM (inactive) | > 100 µM | –
